According to patent US11059795B2, “Androgen receptor modulators and methods for their use” (ESSA Pharma, Inc., priority 2018, dated 2021):

Columns and labels:
androgen receptor (AR) = molecular target: T1, androgen receptor (AR) (Homo sapiens, UniProt P10275, T878A); experiment: Androgen-induced PSA (6.1 kb)-luciferase reporter assay in LNCaP cells; format: cell-based; conditions: LNCaP cells transfected with PSA (6.1 kb)-luciferase reporter, R1881 1 nM, 24 h; read-out: PSA-Luc IC50 Range
T1 construct: LNCaP cells were transiently transfected with the PSA (6.1 kb)-luciferase reporter for 24 h; endogenous in cells; host or cells: LNCaP
T1 sequence (P10275 1-920 T878A): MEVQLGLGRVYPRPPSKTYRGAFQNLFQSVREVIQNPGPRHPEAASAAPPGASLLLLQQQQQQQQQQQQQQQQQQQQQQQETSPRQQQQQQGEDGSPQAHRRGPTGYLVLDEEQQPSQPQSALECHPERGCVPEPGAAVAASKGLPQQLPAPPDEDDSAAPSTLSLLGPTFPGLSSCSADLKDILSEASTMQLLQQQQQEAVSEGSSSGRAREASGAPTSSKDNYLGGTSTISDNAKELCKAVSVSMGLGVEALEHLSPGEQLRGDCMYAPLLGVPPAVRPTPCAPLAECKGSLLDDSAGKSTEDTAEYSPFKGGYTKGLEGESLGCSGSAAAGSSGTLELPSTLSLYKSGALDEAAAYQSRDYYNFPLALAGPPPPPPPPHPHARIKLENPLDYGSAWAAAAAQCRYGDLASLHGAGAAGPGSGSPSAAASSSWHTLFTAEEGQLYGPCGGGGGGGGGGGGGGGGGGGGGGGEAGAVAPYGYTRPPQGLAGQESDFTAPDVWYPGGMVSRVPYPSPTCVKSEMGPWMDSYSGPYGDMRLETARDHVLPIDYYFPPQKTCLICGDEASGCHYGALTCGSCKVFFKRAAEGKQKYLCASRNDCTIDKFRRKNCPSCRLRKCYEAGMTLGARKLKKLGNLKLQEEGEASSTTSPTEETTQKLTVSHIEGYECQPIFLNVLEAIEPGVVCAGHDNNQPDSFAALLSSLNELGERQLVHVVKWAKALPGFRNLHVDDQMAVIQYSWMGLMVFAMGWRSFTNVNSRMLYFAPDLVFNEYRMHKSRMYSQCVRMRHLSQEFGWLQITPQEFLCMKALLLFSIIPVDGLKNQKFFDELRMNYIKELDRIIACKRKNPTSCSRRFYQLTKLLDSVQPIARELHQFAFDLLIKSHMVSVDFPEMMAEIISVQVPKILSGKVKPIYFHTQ
Procedure, shortened: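 LNCaP cells carrying a PSA (6.1 kb) promoter-luciferase reporter with AREs; androgen-induced firefly luciferase read from lysates for 10 s. RLU normalized to protein content; IC50 calculated from the normalized data.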

[1] = Hepatocyte stability assay, mouse hepatocytes; format: in vitro ADME; conditions: mouse, cryopreserved hepatocytes, 1 μM compound, 0.5 million cells/mL, 37° C., read-out: MH +/− NADPH: Clint (μL/min/million cells)
Procedure, shortened: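 Cryopreserved rat, human or mouse hepatocytes at 0.5 million cells/mL in DMEM with 1 μM compound, 37° C, sampled at 0, 60, 120 and 180 min and quenched with acetonitrile/formic acid. Parent loss vs 0-min by LC/MS/MS gave t½, and Clint = 0.693/t½ × mL incubation/million cells.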

[2] = Microsomal stability assay, human liver microsomes; format: in vitro ADME; conditions: pH 7.4, 1 μM compound, 0.5 mg/mL protein, 37° C., read-out: HLM +/− NADPH: Clint (μL/min/mg protein)
Procedure, shortened: (§1)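 Compound at 1 μM was incubated at 37° C with 0.5 mg/mL liver microsomes and 1 mM NADPH and/or 1 mM UDPGA (with alamethicin) in 100 mM potassium phosphate pH 7.4, 3 mM MgCl2. Samples were taken at 0, 15, 30 and 60 min and measured by LC/MS/MS. t½ came from compound loss relative to 0 min, and Clint was scaled with 45 mg microsomal protein/g liver.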

[3] = Microsomal stability assay, mouse liver microsomes; format: in vitro ADME; conditions: mouse, liver microsomes, pH 7.4, mouse liver microsomes, 1 μM compound, 0.5 mg/mL protein, 37° C.; read-out: MLM +30/− NADPH: Clint (μL/min/mg protein)
Procedure, shortened: as §1

| IC50 (androgen receptor (AR)) [µM] | hepatocyte CLint at 1 μM [1] [µL/min/1e6 cells] | microsomal CLint at 1 μM [2] [µL/min/mg] | microsomal CLint at 1 μM [3] [µL/min/mg] | Compound |
| --- | --- | --- | --- | --- |
| < 0.5 | < 4 | < 12 | 12 to 48 | CC(C)(c1ccc(OCc2nc(NS(C)(=O)=O)cs2)cc1)c1cc(Cl)c(OCCCl)c(C#N)c1 [Compound A137, N-(2-((4-(2-(3-Chloro-4-(2-chloroethoxy)-5-cyanophenyl)propan-2-yl)phenoxy)methyl)thiazol-4-yl)methanesulfonamide] |
| < 0.5 | ≥ 18 | ≥ 48 | ≥ 48 | CC(=O)Nc1nc(COc2ccc(C(C)(C)c3cc(Cl)c(OCCCl)c(C#N)c3)cc2)co1 [Compound A140] |
| < 0.5 | ≥ 18 | < 12 | ≥ 48 | CC(C)(c1ccc(OCc2ncoc2S(C)(=O)=O)cc1)c1cc(Cl)c(OCCCl)c(C#N)c1 [Compound A141] |
| < 0.5 | ≥ 18 | 12 to 48 | ≥ 48 | CC(C)S(=O)(=O)c1ncc(COc2ccc(C(C)(C)c3cc(Cl)c(OCCCl)c(C#N)c3)cc2)o1 [Compound A142] |
| > 2 | < 4 | < 12 | < 12 | CC(C)(c1ccc(OCC2COC(NS(C)(=O)=O)=N2)cc1)c1ccc(OCCCl)c(C#N)c1 (centres unmarked) [Compound A143] |
| 0.5 to 2 | ≥ 18 | ≥ 48 | ≥ 48 | CC(=O)Nc1nccc(C(C)Oc2ccc(C(C)(C)c3cc(Cl)c(OCCCl)c(C#N)c3)cc2)n1 (centres unmarked) [Compound A145] |
| > 2 | ≥ 18 | 12 to 48 | ≥ 48 | CC(Oc1ccc(C(C)(C)c2cc(Cl)c(OCCCl)c(C#N)c2)cc1)c1ccnc(S(C)(=O)=O)n1 (centres unmarked) [Compound A147] |
| 0.5 to 2 | < 4 | ≥ 48 | < 12 | CC(C)(c1ccc(OCc2cncnc2NS(C)(=O)=O)cc1)c1cc(Cl)c(OCCCl)c(C#N)c1 [Compound A148] |
| < 0.5 | ≥ 18 | < 12 | < 12 | CC(C)(c1ccc(OCc2cnc(S(C)(=O)=O)s2)cc1)c1cc(Cl)c(OCCCl)c(C#N)c1 [Compound A149] |
| 0.5 to 2 | 4 to 18 | < 12 | 12 to 48 | CC(C)(c1ccc(OCc2ncc(S(C)(=O)=O)o2)cc1)c1cc(Cl)c(OCCCl)c(C#N)c1 [Compound A153] |
| < 0.5 | 4 to 18 | 12 to 48 | ≥ 48 | CC(C)(c1ccc(OCc2coc(N)n2)cc1)c1cc(Cl)c(OCCCl)c(C#N)c1 [Compound A155] |
| < 0.5 | ≥ 18 | 12 to 48 | 12 to 48 | COC(=O)Nc1nc(COc2ccc(C(C)(C)c3cc(Cl)c(OCCCl)c(C#N)c3)cc2)co1 [Compound A156] |
| < 0.5 | ≥ 18 | 12 to 48 | ≥ 48 | Cc1nc(N)cc(COc2ccc(C(C)(C)c3cc(Cl)c(OCCCl)c(C#N)c3)cc2)n1 [Compound A162] |
| 0.5 to 2 | < 4 | < 12 | < 12 | CC(C)(c1ccc(OCc2cc(CN)nc(NS(C)(=O)=O)n2)cc1)c1cc(Cl)c(OCCCl)c(C#N)c1 [Compound A164, N-(4-(aminomethyl)-6-((4-(2-(3-chloro-4-(2-chloroethoxy)-5-cyanophenyl)propan-2-yl)phenoxy)methyl)pyrimidin-2-yl)methanesulfonamide] |
